pIC50: −log10 of the molar value. Where only a bound is given, the exact number is not on record here.

What is called ED50 is the dose at which the effect has come halfway, by size or by number of responders. Lower therefore signals greater potency. One may read the pIC50 as −log10 of the IC50, conventionally taken in molar units. Read a high pIC50 as a small IC50. By LD50 is commonly meant the dose at which mortality reaches 50%. Low values mean a more toxic substance, high ones a less toxic substance.

One series concerns Mus musculus. Briefly: Dose that prevents convulsions in 50% of the CF1 male mice tested after administration of 70 mg/kg of metrazole by intravenous route. The class given is functional.
Series [1] deals with GABA-A receptor; anion channel. The series is described as follows: In vitro displacement of [3H]-diazepam from GABA-A Benzodiazepine receptor. It is filed as protein-complex assay. For orientation: In a radioligand displacement assay an active substance lowers the binding of a labelled ligand.
The nature of series [2]: Lethal dose was determined after intraperitoneal administration in mice. It is filed as toxicity, organism-based. The conditions noted are these: mouse, in vivo, ip.

With `CN1C(=O)CN=C(c2c(Cl)cccc2Cl)c2cc(Cl)ccc21`, the 50% effective dose (ED50) in the series with Mus musculus was 18.9 mg/kg. Besides, the pIC50 in series [1] was 8.15.

Consider `CN1C(=O)CN=C(c2ccccc2)c2cc(Cl)ccc21` [DIAZEPAM], for which the ED50 in the series with Mus musculus stood at 1.2 mg/kg.

`CN(C(=O)CN)c1ccc(Cl)cc1C(=O)c1ccccc1`: the 50% effective dose (ED50) in the series on Mus musculus amounted to 1 mg/kg. For the same compound, the pIC50 in series [1] is 8.00.

`NCC(=O)Nc1ccc(Cl)cc1C(=O)c1ccccc1Cl` had an ED50 in the series on Mus musculus of 3.8 mg/kg. The pIC50 in series [1] was 8.32.

`CN(C(=O)CN)c1ccc(Cl)cc1C(=O)c1c(Cl)cccc1Cl.Cl` returned an LD50 in series [2] of 245 mg/kg. In addition, in the series on Mus musculus, the ED50 was over 200 mg/kg. The compound further showed a pIC50 in series [1] of 6.03.

With `Cl.NCC(=O)Nc1ccc(Cl)cc1C(=O)c1c(Cl)cccc1Cl`, in the series with Mus musculus, the ED50 was over 400 mg/kg. For the same compound, the pIC50 in series [1] is 6.00.

On to `O=C1CN=C(c2ccccc2Cl)c2cc(Cl)ccc2N1` [DELORAZEPAM], for which the ED50 in the series on Mus musculus worked out at 0.26 mg/kg. For the same compound, the pIC50 in series [1] was 8.55.

In the case of `O=C1CN=C(c2c(Cl)cccc2Cl)c2cc(Cl)ccc2N1` [RO-223294], in the series with Mus musculus, the 50% effect level (ED50) was put at a dose of 6 mg/kg. This compound also showed a pIC50 in series [1] of 8.26.

For the origin of these results see ChEMBL document CHEMBL1122128, “Quinazolines and 1,4-benzodiazepines. 90. Structure-activity relationship between substituted 2-amino-N-(2-benzoyl-4-chlorophenyl)acetamides and 1,4-benzodiazepinones” (J Med Chem, 1982).
